This is an account of results in patent US7109220B2, “Amino substituted pyridinyl methanone compounds useful in treating kinase disorders” (Janssen Pharmaceutica N.V., priority 2003, dated 2006).

Experiment [1] concerns the target T1, VEGF-R2 kinase (Rattus norvegicus, UniProt O08775).
T1 construct: polyhistidine (N)
The experiment can be described thus: VEGF-R2 Kinase Screening Assay. The following applies: soluble rat VEGF-R2 kinase, 10 μM ATP; read-out: VEGF-R IC50. The class given is biochemical. Here is the method:
A kinase reaction mixture was prepared containing 50 mM Tris-HCl pH=8, 10 mM MgCl2, 0.1 mM Na3PO4, 1 mM DTT, 10 μM ATP, 0.025 uM biotinylated peptide substrate and 0.8 μCuries per well^33P-γ-ATP [2000–3000 Ci/mmol]. 70 μL of the kinase reaction mixture was dispensed into the well of a streptavidin coated FlashPlate™ (Cat. #SMP103, NEN, Boston, Mass.). 1 μL of test compound stock in 100% DMSO was added to the wells resulting in a final concentration of 1% DMSO in the mixture with a 100 μL final reaction volume. Soluble rat VEGF-R2 kinase^3 was diluted in 50 mM Tris-HCl pH=8.0, 0.1% BSA at a concentration of 5 ng per microliter and 30 μL (150 ng enzyme per test well) was added to each well to initiate the reaction. The reaction was incubated for one hour at 30° C. At the end of the 1-hour incubation, the reaction was terminated by aspirating the reaction mixture from the plate and washing the wells twice with PBS containing 100 mM EDTA. The PLC1 biotinylated peptide substrate became immobilized on the Flashplate™ and the incoporation of ^33P-γ-ATP was measured by reading the plate on a scintillation counter. Inhibition of the enzymatic activity of the VEGF-R was measured by observing a reduced amount of ^33P-γ-ATP incorporated into the immobilized peptide. ^3VEGF-R2 kinase (Vascular Endothelial Growth Factor Receptor-2): a fusion protein containing a polyhistidine tag at the N-terminus followed by amino acids 786–1343 of the rat VEGF-R2 kinase domain GenBank Accession #U93306); Peptide Substrate (Biotin)KHKKLAEGSAYEEV-Amide
(§1) IC50 values listed as >10 or >100 indicate no observed 50% inhibition at the highest dose tested, nor was an inhibition maximum observed.

The target in experiment [2] is T2, CDK1:Cyclin-B (Homo sapiens, UniProt P06493).
T2 construct: purchased New England Biolabs, Beverly, Mass; (CDK1); BIOMOL, Plymouth Meeting, Pa; (Cyclin-B) #6020 (CDK1); #SE-195 (Cyclin-B); host or cells: insect cells
Nature of the experiment: CDK1 Screening Assay. The format is biochemical. Particulars: 10 μM ATP, histone-H1 peptide substrate, 1 hour at 30° C. Here is the method: A kinase reaction mixture was prepared containing 50 mM Tris-HCl pH=8, 10 mM MgCl2, 0.1 mM Na3PO4, 1 mM DTT, 10 μM ATP, 0.025 μM biotinylated histone-H1 peptide substrate and 0.2 μCuries per well^33P-γ-ATP [2000–3000 Ci/mmol]. 70 μL of the kinase reaction mixture was dispensed into the well of a streptavidin coated FlashPlate™ (Cat. #SMP103, NEN, Boston, Mass.). Then 1 μL of test compound stock in 100% DMSO was added to the wells resulting in a final concentration of 1% DMSO in the reaction with a 100 μL final reaction volume. CDK1:Cyclin-B protein^1 was diluted in 50 mM Tris-HCl pH=8.0, 0.1% BSA at a concentration of 1 ng per microliter. 30 μL (30 ng enzyme per test well) was added to each well to initiate the reaction, The reaction was incubated for one hour at 30° C. At the end of the 1-hour incubation, the reaction was terminated by aspirating the reaction mixture from the plate and washing the wells twice with PBS containing 100 mM EDTA. The histone-H1 biotinylated peptide substrate became immobilized on the Flashplate™ and the incorporation of ^33P-γ-ATP was measured by reading the plate on a scintillation counter. Inhibition of the enzymatic activity of CDK1 was measured by observing a reduced amount of ^33P-γ-ATP incorporated into the immobilized peptide. ^1CDK1 (cyclin dependent kinase 1) was isolated from insect cells expressing both the human CDK1 catalytic subunit and its positive regulatory subunit Cyclin B (CDK1: New England Biolabs, Beverly, Mass., Cat. #6020; Cyclin-B: BIOMOL, Plymouth Meeting, Pa., Cat. #SE-195); Peptide Substrate (Biotin)KTPKKAKKPKTPKKAKKL-Amide.
as §1

A value given as a limit tells only on which side of the number the result lay.

T1 sequence (O08775 786-1343): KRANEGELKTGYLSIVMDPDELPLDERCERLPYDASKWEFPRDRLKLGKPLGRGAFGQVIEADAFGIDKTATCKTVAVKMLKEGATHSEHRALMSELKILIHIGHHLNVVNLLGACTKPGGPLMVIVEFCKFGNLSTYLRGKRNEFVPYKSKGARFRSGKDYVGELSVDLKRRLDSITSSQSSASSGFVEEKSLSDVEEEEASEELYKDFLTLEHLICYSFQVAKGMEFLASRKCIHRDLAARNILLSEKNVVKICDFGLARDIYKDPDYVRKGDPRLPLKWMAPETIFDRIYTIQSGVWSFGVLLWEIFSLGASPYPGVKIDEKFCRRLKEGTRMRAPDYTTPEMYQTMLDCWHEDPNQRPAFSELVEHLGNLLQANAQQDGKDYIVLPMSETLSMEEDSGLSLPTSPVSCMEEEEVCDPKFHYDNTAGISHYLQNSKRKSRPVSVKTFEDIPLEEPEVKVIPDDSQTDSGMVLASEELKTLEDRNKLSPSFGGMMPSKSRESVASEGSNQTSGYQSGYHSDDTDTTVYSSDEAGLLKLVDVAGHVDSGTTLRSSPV
T2 sequence (P06493 whole entry): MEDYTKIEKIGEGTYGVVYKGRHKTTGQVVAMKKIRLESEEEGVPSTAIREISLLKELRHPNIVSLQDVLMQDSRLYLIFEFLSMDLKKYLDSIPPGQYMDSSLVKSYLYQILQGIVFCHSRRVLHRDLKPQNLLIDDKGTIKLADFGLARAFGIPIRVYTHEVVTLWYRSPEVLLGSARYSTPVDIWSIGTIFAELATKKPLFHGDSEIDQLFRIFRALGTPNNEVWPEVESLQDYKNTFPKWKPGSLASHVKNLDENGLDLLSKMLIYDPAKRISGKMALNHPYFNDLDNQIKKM
T2 sequence (P14635 whole entry partner): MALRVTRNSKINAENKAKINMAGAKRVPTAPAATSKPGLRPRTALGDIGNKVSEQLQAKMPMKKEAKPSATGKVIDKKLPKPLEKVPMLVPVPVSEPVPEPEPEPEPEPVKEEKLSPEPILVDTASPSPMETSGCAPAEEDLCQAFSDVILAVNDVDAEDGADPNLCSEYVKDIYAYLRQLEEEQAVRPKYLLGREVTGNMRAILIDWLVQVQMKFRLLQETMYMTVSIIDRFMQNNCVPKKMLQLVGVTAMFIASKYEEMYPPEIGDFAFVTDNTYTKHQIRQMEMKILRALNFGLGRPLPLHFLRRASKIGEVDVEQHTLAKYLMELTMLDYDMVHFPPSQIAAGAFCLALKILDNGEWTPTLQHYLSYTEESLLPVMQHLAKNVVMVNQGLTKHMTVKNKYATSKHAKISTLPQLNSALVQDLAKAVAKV

The term IC50 denotes the midpoint of a concentration-inhibition curve. Consider “4-[[6-amino-5-(2,6-difluorobenzoyl)-2-pyridinyl]amino]benzonitrile [Cpd 15]”, for which the figures for the IC50 in experiment [1] and in experiment [2] were greater than 10 µM and 0.95 µM, respectively.
As to `Nc1ccc(C(=O)c2ccccc2F)c(N)n1` [Cpd 2, (2,6-diamino-3-pyridinyl)(2-fluorophenyl)methanone], the IC50 in experiment [1] was greater than 10 µM.
Consider `Nc1nc(Nc2ccc(S(=O)(=O)N(Cc3ccccc3)Cc3ccccc3)cc2)ccc1C(=O)c1c(F)cccc1F` [Cpd 2b, 4-[[6-amino-5-(2,6-difluorobenzoyl)-2-pyridinyl]amino]-N,N-bis(phenylmethyl)benzenesulfonamide], for which the IC50 in experiment [1] and in experiment [2] was greater than 10 µM throughout.
On to `Nc1ccc(C(=O)c2ccccc2)c(N)n1` [Cpd 3, (2,6-diamino-3-pyridinyl)phenylmethanone], for which, in experiment [1], the IC50 was greater than 10 µM.
Consider `Nc1ccc(C(=O)c2ccco2)c(N)n1` [Cpd 4, (2,6-diamino-3-pyridinyl)-2-furylmethanone], for which the IC50 in experiment [1] and in experiment [2] was greater than 100 µM in each case.
With `Nc1ccc(C(=O)c2cccs2)c(N)n1` [Cpd 5, (2,6-diamino-3-pyridinyl)-2-thienylmethanone], the IC50 in experiment [1] and in experiment [2] was greater than 100 µM throughout.
For `Nc1nc(Nc2ccc(S(N)(=O)=O)cc2)ccc1C(=O)c1c(F)cccc1F` [Cpd 6, 4-[[6-amino-5-(2,6-difluorobenzoyl)-2-pyridinyl]amino]benzenesulfonamide], the IC50 in experiment [1] is greater than 10 µM.
Turning to `CN(C)S(=O)(=O)c1ccc(Nc2ccc(C(=O)c3c(F)cccc3F)c(N)n2)cc1` [Cpd 7, 4-[[6-amino-5-(2,6-difluorobenzoyl)-2-pyridinyl]amino]-N,N-dimethylbenzenesulfonamide], the values for the IC50 in experiment [1] and in experiment [2] were greater than 10 µM and 0.26 µM, respectively.
In the case of `Nc1nc(Nc2cccc([N+](=O)[O-])c2)ccc1C(=O)c1c(F)cccc1F` [Cpd 10, [2-amino-6-[(3-nitrophenyl)amino]-3-pyridinyl](2,6-difluorophenyl)methanone], the IC50 in experiment [1] is greater than 100 µM.
`Nc1nc(Nc2cccc(Cl)c2)ccc1C(=O)c1c(F)cccc1F` [Cpd 11, [2-amino-6-[(3-chlorophenyl)amino]-3-pyridinyl](2,6-difluorophenyl)methanone]: the IC50 in experiment [1] was greater than 100 µM; in experiment [2], 6.16 µM.
In the case of `Nc1nc(Nc2ccccc2[N+](=O)[O-])ccc1C(=O)c1c(F)cccc1F` [Cpd 12, [2-amino-6-[(2-nitrophenyl)amino]-3-pyridinyl](2,6-difluorophenyl)methanone], the IC50 in experiment [1] and in experiment [2] was greater than 10 µM each time.
For `Nc1nc(Nc2ccccc2)ccc1C(=O)c1c(F)cccc1F` [Cpd 13, [2-amino-6-(phenylamino)-3-pyridinyl](2,6-difluorophenyl)methanone], the IC50 in experiment [1] is greater than 100 µM; in experiment [2] it was 21.7 µM.
For `Nc1nc(Nc2ccccn2)ccc1C(=O)c1c(F)cccc1F` [Cpd 14, [2-amino-6-(2-pyridinylamino)-3-pyridinyl](2,6-difluorophenyl)methanone], in experiment [1], the IC50 was greater than 100 µM.
Consider `Nc1nc(Nc2ccc(C(=O)O)cc2)ccc1C(=O)c1c(F)cccc1F` [Cpd 16, 4-[[6-amino-5-(2,6-difluorobenzoyl)-2-pyridinyl]amino]benzoic acid], for which the IC50 in experiment [1] is greater than 10 µM.
On the same count and under the same terms, the result for `Nc1ccc(Nc2ccc(C(=O)c3c(F)cccc3F)c(N)n2)cc1` [Cpd 17, [2-amino-6-[(4-aminophenyl)amino]-3-pyridinyl](2,6-difluorophenyl)methanone] reads greater than 10 µM; that for `CNc1ccc(Nc2ccc(C(=O)c3c(F)cccc3F)c(N)n2)cc1` [Cpd 18, [2-amino-6-[[4-(methylamino)phenyl]amino]-3-pyridinyl](2,6-difluorophenyl)methanone], greater than 10 µM.
The same measure, in the same setting: for `Nc1nc(Nc2ccc(NS(=O)(=O)c3ccccc3)cc2)ccc1C(=O)c1c(F)cccc1F` [Cpd 19, N-[4-[[6-amino-5-(2,6-difluorobenzoyl)-2-pyridinyl]amino]phenyl]benzenesulfonamide] the value was greater than 10 µM; for `Nc1ccccc1Nc1ccc(C(=O)c2c(F)cccc2F)c(N)n1` [Cpd 20, [2-amino-6-[(2-aminophenyl)amino]-3-pyridinyl](2,6-difluorophenyl)methanone], greater than 100 µM.
Take `CC(=O)Nc1ccccc1Nc1ccc(C(=O)c2c(F)cccc2F)c(N)n1` [Cpd 21, N-[2-[[6-amino-5-(2,6-difluorobenzoyl)-2-pyridinyl]amino]phenyl]acetamide]: the IC50 in experiment [1] and in experiment [2] was greater than 100 µM in each case.
Regarding `Nc1nc(Nc2ccccc2NC(=O)c2ccccc2)ccc1C(=O)c1c(F)cccc1F` [Cpd 22, N-[2-[[6-amino-5-(2,6-difluorobenzoyl)-2-pyridinyl]amino]phenyl]benzamide], the IC50 in experiment [1] and in experiment [2] was greater than 100 µM throughout.
As to `Nc1nc(Nc2ccccc2NS(=O)(=O)c2ccccc2)ccc1C(=O)c1c(F)cccc1F` [Cpd 23, N-[2-[[6-amino-5-(2,6-difluorobenzoyl)-2-pyridinyl]amino]phenyl]benzenesulfonamide], the 50% inhibitory concentration (IC50) in experiment [1] and in experiment [2] was greater than 100 µM throughout.
For the molecule `CN(C)S(=O)(=O)c1ccc(Nc2ccc(C(=O)c3ccccc3F)c(N)n2)cc1` [Cpd 24, 4-[[6-amino-5-(2-fluorobenzoyl)-2-pyridinyl]amino]-N,N-dimethyl benzenesulfonamide], in experiment [1], the IC50 was greater than 100 µM.
As to `CN(C)S(=O)(=O)c1ccc(Nc2ccc(C(=O)c3ccccc3)c(N)n2)cc1` [Cpd 25, 4-[(6-amino-5-benzoyl-2-pyridinyl)amino]-N,N-dimethylbenzenesulfonamide], the IC50 in experiment [1] was greater than 100 µM.
As to `CCN(CC)S(=O)(=O)c1ccc(Nc2ccc(C(=O)c3ccccc3)c(N)n2)cc1` [Cpd 26, 4-[(6-amino-5-benzoyl-2-pyridinyl)amino]-N,N-diethylbenzenesulfonamide], the IC50 in experiment [1] and in experiment [2] was greater than 100 µM in each case.
For `CN(C)S(=O)(=O)c1ccc(Nc2ccc(C(=O)c3ccco3)c(N)n2)cc1` [Cpd 27, 4-[[6-amino-5-(2-furanylcarbonyl)-2-pyridinyl]amino]-N,N-dimethyl benzenesulfonamide], the IC50 in experiment [1] was greater than 100 µM.
Take `CCN(CC)S(=O)(=O)c1ccc(Nc2ccc(C(=O)c3ccco3)c(N)n2)cc1` [Cpd 28, 4-[[6-amino-5-(2-furanylcarbonyl)-2-pyridinyl]amino]-N,N-diethylbenzenesulfonamide]: the IC50 in experiment [1] and in experiment [2] was greater than 100 µM in each case.
For the molecule `CN(C)S(=O)(=O)c1ccc(Nc2ccc(C(=O)c3cccs3)c(N)n2)cc1` [Cpd 29, 4-[[6-amino-5-(2-thienylcarbonyl)-2-pyridinyl]amino]-N,N-dimethylbenzene sulfonamide], in experiment [1], the IC50 was greater than 100 µM.
